Data published in ChEMBL document CHEMBL2346549, “Vavilosides A1/A2-B1/B2, new furostane glycosides from the bulbs of Allium vavilovii with cytotoxic activity” (Bioorg Med Chem, 2013).

What was measured:
J774 = assay: Cytotoxicity against mouse J774 cells assessed as growth inhibition after 72 hrs by MTT assay; format: functional, cell-based; conditions: J774, 72 h
WEHI-164 = assay: Cytotoxicity against mouse WEHI164 cells assessed as growth inhibition after 72 hrs by MTT assay; format: functional, cell-based; conditions: WEHI-164, 72 h

SMILES | IC50 (J774) | IC50 (WEHI-164)
C[C@H](CCC1(O)O[C@H]2C[C@H]3[C@@H]4CC=C5C[C@@H](O)C[C@@H](O[C@@H]6O[C@H](CO)[C@H](O)[C@H](O)[C@H]6O)[C@]5(C)[C@H]4CC[C@]3(C)[C@H]2[C@@H]1C)CO[C@@H]1O[C@H](CO)[C@@H](O)[C@H](O)[C@H]1O[C@@H]1O[C@@H](C)[C@H](O)[C@@H](O)[C@H]1O (mixture of isomers) [ASCALONICOSIDE A1/A2] | 4 µg/mL | 3.7 µg/mL
C[C@H](CCC1(O)O[C@H]2C[C@H]3[C@@H]4CC=C5C[C@@H](O)C[C@@H](O[C@@H]6OC[C@@H](O)[C@H](O)[C@H]6O[C@@H]6O[C@@H](C)[C@H](O)[C@@H](O)[C@H]6O)[C@]5(C)[C@H]4CC[C@]3(C)[C@H]2[C@@H]1C)CO[C@@H]1O[C@@H](C)[C@H](O)[C@@H](O)[C@H]1O (mixture of isomers) | 3.5 µg/mL | 3.1 µg/mL
C[C@H](CCC1(O)O[C@H]2C[C@H]3[C@@H]4CC=C5C[C@@H](O)C[C@@H](O[C@@H]6O[C@H](CO)[C@H](O)[C@H](O)[C@H]6O[C@@H]6O[C@@H](C)[C@H](O)[C@@H](O)[C@H]6O)[C@]5(C)[C@H]4CC[C@]3(C)[C@H]2[C@@H]1C)CO[C@@H]1O[C@@H](C)[C@H](O)[C@@H](O)[C@H]1O (mixture of isomers) | 5.1 µg/mL | 4.7 µg/mL
